Reference: patent US8614339B2, “Dimeric derivatives of artemisinin and application in anti-cancer therapy” (Pierre Fabre Medicament, priority 2008, dated 2013)

Columns and labels:
[1] = system: Namalwa cell line (lymphoma); assay: Cytotoxic activity: inhibition of cell proliferation, ATPLite luminescence of residual ATP after 72 hours; format: cell-based; details: Namalwa human lymphoma cell line, 72 hours of incubation, read-out: IC50 (expressed in nM) Namalwa
Experimental: (§1) The cytotoxic activity of the compounds of the invention was evaluated by measuring inhibition of cell proliferation of human tumour cell lines, such as the A549 cell line (lung) and the Namalwa cell line (lymphoma). This activity is expressed by IC50, the concentration of the product tested able to inhibit cell proliferation by 50%. The method employed is measurement by luminescence of residual ATP after 72 hours of incubation using the ATPLite® kit sold by Perkin Elmer, as described in the following publication: “Measurement of cytotoxicity by ATP-based luminescence assay in primary cell cultures and cell lines.” I. A. Cree, P. E. Andreotti, Toxicology in Vitro, 11, 553-6, (1997).
(§2) As an example, the cytotoxic properties of a few of the compounds of the invention evaluated on A549 and Namalwa cell lines are presented in the following table: […]

A549 cell line (lung) = assay: as above; format: cell-based; details: A549 human lung tumour cell line, 72 hours of incubation, read-out: IC50 (expressed in nM) A549
Experimental: as §1, §2

Molecule C[C@@H]1CC[C@H]2[C@@H](C)[C@](OCCCCCN(C)CC3=C(C(F)(F)F)O[C@@H]4O[C@@]5(C)CC[C@H]6[C@H](C)CC[C@@H]3[C@@]46OO5)(C(F)(F)F)O[C@@H]3O[C@@]4(C)CC[C@@H]1[C@]32OO4 [Compound 22] has an IC50 [1] of 83 nM and an IC50 (A549 cell line (lung)) of 46 nM.
C[C@@H]1CC[C@H]2C(COCCCCO[C@@]3(C(F)(F)F)O[C@@H]4OC5(C)CCC6[C@H](C)CC[C@@H]([C@H]3C)[C@]64OO5)=C(C(F)(F)F)O[C@@H]3OC4(C)CCC1[C@]32OO4 (stereo partly drawn) [Compound 3] was tested, and the IC50 [1] was 5.5 nM and the IC50 (A549 cell line (lung)) was 6.7 nM.
C[C@@H]1CC[C@H]2C(COCc3cccc(CO[C@@]4(C(F)(F)F)O[C@@H]5OC6(C)CCC7[C@H](C)CC[C@@H]([C@H]4C)[C@]75OO6)n3)=C(C(F)(F)F)O[C@@H]3OC4(C)CCC1[C@]32OO4 (stereo partly drawn) [Compound 4] gave an IC50 [1] of 19 nM and an IC50 (A549 cell line (lung)) of 27 nM.
C[C@@H]1CC[C@H]2C(COC/C=C/CO[C@@]3(C(F)(F)F)O[C@@H]4OC5(C)CCC6[C@H](C)CC[C@@H]([C@H]3C)[C@]64OO5)=C(C(F)(F)F)O[C@@H]3O[C@@]4(C)CCC1[C@]32OO4 (stereo partly drawn) [Compound 8] showed an IC50 [1] of 13 nM and an IC50 (A549 cell line (lung)) of 27 nM.
For C[C@@H]1CC[C@H]2C(COCCCO[C@@]3(C(F)(F)F)O[C@@H]4OC5(C)CCC6[C@H](C)CC[C@@H]([C@H]3C)[C@]64OO5)=C(C(F)(F)F)O[C@@H]3OC4(C)CCC1[C@]32OO4 (stereo partly drawn) [Compound 1], the IC50 [1] was 6.8 nM and the IC50 (A549 cell line (lung)) was 5.2 nM.
C[C@@H]1CC[C@H]2C(COCCO[C@@]3(C(F)(F)F)O[C@@H]4OC5(C)CCC6[C@H](C)CC[C@@H]([C@H]3C)[C@]64OO5)=C(C(F)(F)F)O[C@@H]3OC4(C)CCC1[C@]32OO4 (stereo partly drawn) [Compound 2] was tested, and the IC50 [1] was 27 nM and the IC50 (A549 cell line (lung)) was 25 nM.
For C[C@@H]1CC[C@H]2[C@@H](C)[C@](OCCCCCOCC3=C(C(F)(F)F)O[C@@H]4O[C@@]5(C)CC[C@H]6[C@H](C)CC[C@@H]3[C@@]46OO5)(C(F)(F)F)O[C@@H]3O[C@@]4(C)CC[C@@H]1[C@]32OO4 [Compound 16], the IC50 [1] was 42 nM and the IC50 (A549 cell line (lung)) was 19 nM.
For C[C@@H]1CC[C@H]2C(Cn3nncc3CO[C@@]3(C(F)(F)F)O[C@@H]4OC5(C)CCC6[C@H](C)CC[C@@H]([C@H]3C)[C@]64OO5)=C(C(F)(F)F)O[C@@H]3OC4(C)CCC1[C@]32OO4 (stereo partly drawn) [Compound 7], the IC50 [1] was 30 nM and the IC50 (A549 cell line (lung)) was 45 nM.
Molecule C[C@@H]1CC[C@H]2C(CNCCO[C@@]3(C(F)(F)F)O[C@@H]4OC5(C)CCC6[C@H](C)CC[C@@H]([C@H]3C)[C@]64OO5)=C(C(F)(F)F)O[C@@H]3O[C@@]4(C)CCC1[C@]32OO4 (stereo partly drawn) [Compound 10] has an IC50 [1] of 19 nM and an IC50 (A549 cell line (lung)) of 27 nM.
